Data on five compounds can be found in patent publication EP0363326A2, “Fungicidal amines” (SANDOZ AG, priority 1988, dated 1990).

In one test the test system is Gerlachia nivalis. The test is described as follows: inhibition zone test, treated wheat seeds on agar containing the fungus. Type of test: cell-based. The settings on record: seed dressing, evaluated one week after placing on agar. How it is done: (§1) The efficacy against seed-borne diseases can be illustrated by the inhibition zone test: single seeds treated with a seed dressing formulation comprising the compound to be tested e.g. with the seed dressing formulation according to Example 2 (hereinafter described) are placed on agar containing the seed-borne fungus. […] The size of the inhibition zone is evaluated one week after the seed has been placed on the agar. The activity is expressed as the concentration (in g per 100 kg seed) resulting in 90 % or more growth inhibition of the fungal mycelium.

The next test deals with Fusarium culmorum. Described as above. Type of test: cell-based. The settings on record: seed dressing, evaluated one week after placing on agar. The method, then:
as §1

For the next test, the system named is Septoria nodorum. The test is described as above. Type of test: cell-based. The settings on record: seed dressing, evaluated one week after placing on agar. How it is done: as §1
A further test has as its system Cochliobulus sativus. The test is described as follows: inhibition zone test, treated barley seeds on agar containing the fungus. Type of test: cell-based. The settings on record: seed dressing, evaluated one week after placing on agar. How it is done:
as §1

Test [1] relates to Pyrenophora graminea. Described as above. Type of test: cell-based. Particulars: seed dressing, evaluated one week after placing on agar. How it is done: as §1
Another test has as its system Pyrenophora teres. The description is as above. Type of test: cell-based. Particulars: seed dressing, evaluated one week after placing on agar. The method, then: as §1
The test system of the next test is Ustilago nuda. The test is described as follows: Outdoor pot test, spring barley seed dressing. Type of test: in vivo. The settings on record: dosage 8 g a.i./100kg seed. The method, then: (§2) Spring barley seed naturally infested by Pyrenophora graminea are treated with a seed dressing formulation according to Example 1 and sown in pots filled with a substrate equivalent to a sandy loam in a growth chamber at 10°C with 14-17 hours daylight. The determination of the fungal control involves a visual evaluation 60 days after said dressing and sowing.
(§3) Analogous tests are run outdoors under naturally occurring wheather conditions with spring barley infected by Pyrenophora graminea and Ustilago nuda. […]

For test [2], the system named is Pyrenophora graminea. Nature of the test: Outdoor pot test, spring barley seed dressing. Particulars: dosage 8 g a.i./100kg seed. Type of test: in vivo. The method, then: as §2, §3
In test [3] the test system is Pyrenophora graminea. The test is described as follows: Indoor pot test, spring barley seed dressing. Type of test: in vivo. The settings on record: dosage 8 g a.i./100kg seed, growth chamber 10°C, visual evaluation 60 days after dressing and sowing. The method, then: as §2
For test [4], the system named is Pseudocercosporella herpotrichoides. Particulars: causal agent of eyespot of cereals; cited from earlier work.

`CCCC(C)(C)C#CC=CCN(C)Cc1cccc2ccccc12` [nC₃H₇, N-(6,6-Dimethyl-2-nonen-4-inyl)-N-Methyl-1-naphthylmethylamine]: the “Concentration (g/100 kg Seed) providing ≧90% control” value with Gerlachia nivalis was found to be 2 g/100 kg Seed; in the test with Fusarium culmorum, 8 g/100 kg Seed; with Septoria nodorum, 2 g/100 kg Seed; in the test with Cochliobulus sativus, 2 g/100 kg Seed; in the test on Pyrenophora graminea [1], 2 g/100 kg Seed; with Pyrenophora teres, 4 g/100 kg Seed. For the same compound, the “% Control outdoors U. nuda” value in the test with Ustilago nuda is on record as 100%. Besides, the “% Control outdoors P. gram.” value in the test on Pyrenophora graminea [2] came out at 80%. Moreover, in the test with Pyrenophora graminea [3], the “% Control indoors P. gram.” value is 80-90%.
Consider `C=CCOC(Cn1ccnc1)c1ccc(Cl)cc1Cl` (stereo not shown) [Standard A, Imazalil], for which the “Concentration (g/100 kg Seed) providing ≧90% control” value with Septoria nodorum is 8 g/100 kg Seed; in the test on Cochliobulus sativus, 4 g/100 kg Seed; with Pyrenophora graminea [1], 8 g/100 kg Seed; in the test on Pyrenophora teres it was 8 g/100 kg Seed.
Take `CN(C/C=C/c1ccccc1)Cc1cccc2ccccc12` [naftifine]: the “fungicidal activity in in-vitro tests” value in [4] was “fungicidal activity”.
In the case of `CN(C/C=C/C#CC(C)(C)C)Cc1cccc2ccccc12` [CH₃, terbinafine], the “Concentration (g/100 kg Seed) providing ≧90% control” value in the test with Gerlachia nivalis and in the test with Pyrenophora graminea [1] was less than 5 g/100 kg Seed each time. For the same compound, the “fungicidal activity in in-vitro tests” value in test [4] was “fungicidal activity”.
In the case of Guazatine, the “Concentration (g/100 kg Seed) providing ≧90% control” value with Gerlachia nivalis is listed as 8 g/100 kg Seed; in the test with Fusarium culmorum, 4 g/100 kg Seed.
